The subject of one data set is rCHIKV mutants. In words: microbe, parasite or virus in culture. Format: cell-based, Chikungunya virus. Conditions: for Fold resistance: EC50 mutant/EC50 wt.
The target in data set [1] is host enzyme SAH hydrolase. Also noted: method as in PMID 26010585. Conditions: in vitro; read-out: 50% inhibitory concentration, SAH hydrolase; cited from earlier work.
A further data set deals with SFV. Kind of data set: CPE reduction assay, SFV.
The next data set relates to SINV. Kind of data set: CPE reduction assay, SINV. Conditions: VeroE6 cells, MOI 0.025.
The next data set deals with CHIKV. In words: CPE reduction assay, CHIKV.
A further data set relates to VeroE6 cells. Kind of data set: Cytotoxicity in uninfected cells (MTS/PMS) of the CPE reduction assay.
For the next data set, the target named is T1, wt SFV nsP1 (Semliki forest virus, UniProt P08411).
T1 sequence (P08411 1-537): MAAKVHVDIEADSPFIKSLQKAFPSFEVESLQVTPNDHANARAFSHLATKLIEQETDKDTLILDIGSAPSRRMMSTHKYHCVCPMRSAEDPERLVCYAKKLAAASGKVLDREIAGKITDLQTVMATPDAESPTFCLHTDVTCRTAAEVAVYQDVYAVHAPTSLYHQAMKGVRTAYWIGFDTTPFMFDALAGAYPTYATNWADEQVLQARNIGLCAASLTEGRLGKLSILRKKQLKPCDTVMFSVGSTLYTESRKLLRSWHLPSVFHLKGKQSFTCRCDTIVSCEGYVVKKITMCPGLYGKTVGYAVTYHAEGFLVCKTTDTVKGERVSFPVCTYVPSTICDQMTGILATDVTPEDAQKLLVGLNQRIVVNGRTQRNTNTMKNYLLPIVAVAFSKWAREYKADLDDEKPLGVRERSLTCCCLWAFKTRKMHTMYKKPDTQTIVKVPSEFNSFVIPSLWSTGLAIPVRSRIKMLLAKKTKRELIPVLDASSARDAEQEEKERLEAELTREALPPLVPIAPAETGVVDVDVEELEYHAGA
In words: nsP1 enzymatic activity assay (m7GMP-nsP1 intermediate formation), wt.

The target in the next data set is T2, SFV nsP1 K231R+K300E (Semliki forest virus, UniProt P08411, K231R/K300E).
T2 sequence (P08411 1-537 K231R/K300E): T1 sequence (P08411 1-537) with K231R, K300E
The data set is classed as biochemical. The following applies: 0 to 1 mM, 10 μM SAM, normalized to untreated control.

The mark [2] stands for this setting: Chikungunya virus, Vero C1008, read-out: Mean EC50 ± SD.
The mark [3] stands for this setting: Chikungunya virus, read-out: Mean EC50 ± SD.
Where [4] appears, read: rCHIKV nsP1-G230R + nsP1-K299E + nsP3-*524R.
Setting [5] is: rCHIKV nsP1-G230R + nsP1-K299E + nsP3-*524R, read-out: Mean EC50 ± SD.
[6] abbreviates: rCHIKV nsP1-G230R + nsP1-K299E, read-out: Mean EC50 ± SD.
The mark [7] stands for this setting: rCHIKV nsP1-R171Q, read-out: Mean EC50 ± SD.

What is called EC50 is the concentration needed to bring the measured effect to its halfway point. Usually CC50 stands for the concentration giving 50% cytotoxicity.

Numbering of substitutions follows the chain as printed. “Also recorded” adds a separate entry of the source. Read-outs that look alike come from different tables or passages of the source.

6′-β-fluoro-homoaristeromycin [FHA]: the “Resistance of rCHIKV G230R+K299E to the compound” value in the data set with rCHIKV mutants (rCHIKV G230R+K299E) is “resistant”. Also, the IC50 in data set [1] was 370 nM. In addition, the “SI (SFV)” value in the data set with SFV (CC50/EC50) is reported as greater than 64. The EC50 in the data set on SFV (read-out: EC50 (SFV), VeroE6 cells, MOI 0.025, MTS at 40 hpi, mean ± SD) stood at 3900 ± 3500 nM; in the data set on CHIKV (read-out: EC50 (CHIKV), VeroE6 cells, MOI 0.005, MTS at 96 hpi, mean ± SD) it was 120 ± 40 nM. Also, the “Protection against SINV infection” value in the data set on SINV was “did not confer protection”. In the data set on CHIKV (CC50/EC50), the “SI (CHIKV)” value is on record as >1,000. In addition, the half-maximal cytotoxic concentration (CC50) is greater than 250000 nM in the data set with VeroE6 cells (read-out: CC50 (CHIKV assay), CHIKV assay format); greater than 250000 nM in the data set on VeroE6 cells (read-out: CC50 (SFV assay), SFV assay format); greater than 250000 nM in the data set on VeroE6 cells (read-out: CC50 (SINV assay), SINV assay format).
For `O=c1cnn([C@@H]2O[C@H](CO)[C@@H](O)[C@H]2O)c(=O)[nH]1` [6-Azauridine, 6-azauridine, reference compound], the EC50 in the data set with rCHIKV mutants (setting [2]) amounted to 300 ± 10 nM; in the data set with rCHIKV mutants (setting [3]), 8900 ± 3400 nM; with rCHIKV mutants (setting [5]) it was 900 ± 100 nM; in the data set with rCHIKV mutants (setting [6]) it was 1100 ± 100 nM; in the data set on rCHIKV mutants (setting [7]), 800 ± 100 nM. In addition, the Fold resistance is recorded as 4 in the data set with rCHIKV mutants (setting [4]), 4 with rCHIKV mutants (rCHIKV nsP1-G230R + nsP1-K299E) and 3 in the data set on rCHIKV mutants (rCHIKV nsP1-R171Q).
For `CCc1nc2c(nnn2-c2cccc(OC(C)C)c2)c(=O)[nH]1` [MADTP-372, reference compound], the “Effect on formation of m7GMP-nsP1 intermediate (control compound)” value at wt SFV nsP1 (50 μM, 5 or 10 μM SAM) was “clearly inhibited the reaction”.
Regarding `COc1c(C)c2c(c(O)c1C/C=C(\C)CCC(=O)O)C(=O)OC2` [Mycophenolic acid, mycophenolic acid, reference compound], the EC50 in the data set with rCHIKV mutants (setting [2]) amounted to 400 ± 10 nM; in the data set on rCHIKV mutants (setting [3]), 6300 ± 11400 nM; in the data set with rCHIKV mutants (setting [5]) it was 500 ± 30 nM; with rCHIKV mutants (setting [6]) it was 1100 ± 500 nM; with rCHIKV mutants (setting [7]) it was 4200 ± 2800 nM. Besides, the Fold resistance is given as 1 with rCHIKV mutants (setting [4]), 3 with rCHIKV mutants (rCHIKV nsP1-G230R + nsP1-K299E) and 11 in the data set with rCHIKV mutants (rCHIKV nsP1-R171Q).
As for `Nc1ncnc2c1ncn2[C@@H]1O[C@H](CSCC[C@H](N)C(=O)O)[C@@H](O)[C@H]1O` [SAH, S-adenosylhomocysteine, reference compound], the “Inhibition of mutant compared to wt SFV nsP1” value on SFV nsP1 K231R+K300E is given as “inhibited by SAH to a similar extent; also recorded: inhibited by SAH to the same extent”. For the same compound, the “Inhibition of m7GMP-nsP1 formation, dose response” value on wt SFV nsP1 (0 to 1 mM, 10 μM SAM) is given as “inhibited in a dose-dependent manner”. Further, at wt SFV nsP1 (1 mM, 100-fold molar excess over SAM (10 μM SAM)), the “Inhibition of m7GMP-nsP1 formation” value is “fully inhibited”.

These data come from paper PMC7179274, “6′-β-Fluoro-Homoaristeromycin and 6′-Fluoro-Homoneplanocin A Are Potent Inhibitors of Chikungunya Virus Replication through Their Direct Effect on Viral Nonstructural Protein 1” (Antimicrobial Agents and Chemotherapy, 2020).
